IC50 data for two molecules are collected here from patent publication US7713969B2, “Compositions and methods for treatment of cancer” (ArQule, Inc., priority 2005, dated 2010).

Where two headings read alike, the source gives them in different places. Some results are limits rather than exact numbers.

The subject of one assay is HCT-116. The assay is described as follows: Cell viability MTS assay. The format is cell-based, human. Conditions: Homo sapiens, HCT-116, 72 hours with compound. The procedure, abridged:
(§1)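 Tetrazolium (MTS) viability read after 72 hours of compound treatment in DMEM with 15% FBS, 10 mM L-glutamine and 10 mM Hepes pH 7.5. IC50 derived by non-linear regression relative to 0.33% DMSO controls.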
In general terms: Tetrazolium dyes change colour on reduction, which living cells bring about.

In another assay the test system is DU-145. Briefly: Cell viability MTS assay. The format is cell-based, human. Conditions: Homo sapiens, DU-145, 72 hours with compound. An outline of the steps: as §1
For another assay, the system named is K562. Briefly: Cell viability MTS assay. The format is cell-based, human. Conditions: Homo sapiens, K562, 72 hours with compound. An outline of the steps: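 Cells are seeded and incubated 16-24 hours, then given compound for 72 hours at 0.33% final DMSO. MTS and PMS are added for 4 hours, followed by SDS to 1.4%, and absorbance is read at 490 nm. IC50 marks a 50% drop in viable cells relative to DMSO-only wells.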

Another assay has as its system MCF7. The assay is described as follows: Cell viability MTS assay. The format is cell-based, human. Conditions: Homo sapiens, MCF7, 72 hours with compound. An outline of the steps:
as §1

The subject of another assay is SK-MEL-28. Briefly: Cell viability MTS assay. The format is cell-based, human. Conditions: Homo sapiens, SK-MEL-28, 72 hours with compound. An outline of the steps: as §1
For the next assay, the system named is HT29. Briefly: Cell viability MTS assay. The format is cell-based, human. Conditions: Homo sapiens, HT-29, 72 hours with compound. The procedure, abridged: as §1
The test system of a further assay is SKOV-3. Briefly: Cell viability MTS assay. The format is cell-based, human. Conditions: Homo sapiens, SK-OV-3, 72 hours with compound. The procedure, abridged:
as §1

In another assay the test system is MDA-MB-231. Briefly: Cell viability MTS assay. Conditions: Homo sapiens, MDA-MB-231, 72 hours with compound. It counts as cell-based, human. An outline of the steps:
as §1

The next assay has as its system A549. The assay is described as follows: Cell viability MTS assay. It counts as cell-based, human. Conditions: Homo sapiens, A549, 72 hours with compound. The procedure, abridged:
as §1

The subject of a further assay is PC-3. The assay is described as follows: Cell viability MTS assay. It counts as cell-based, human. Conditions: Homo sapiens, PC-3, 72 hours with compound. The procedure, abridged: as §1
A further assay deals with human tumor cell lines. Briefly: Colony formation assay, summary across cell lines. It counts as cell-based. Conditions: c-Met expressing solid tumor types, 24 hours exposure, read-out: IC50 for c-Met expressing solid tumor types (CFA). The protocol: To determine c-met inhibition, exponentially growing MCF-7 and MDA-MB-231 human breast cancer cells, DLD1 and HT29 human colon cancer cells, PACA2 and PANC-1 human pancreatic cancer cells and NCI-H441 human non-small cell lung cancer cells (H441) were serum starved in 0.5% FBS and treated with increasing amounts of (−)-trans-3-(5,6-dihydro-4H-pyrrolo [3,2,1-ij]quinolin-1-yl)-4(1H-indol-3-yl)pyrrolidine-2,5-dione for 24 hours as indicated. Cells were then left unstimulated or stimulated with 100 ng/mL HGF for 10 minutes and whole cell extracts were prepared. […] Percent inhibition was determined by densitometry using the Scion Image For colony formation assays (CFA), exponentially growing cells were seeded at 2,000 cells per well in 6-well plates and allowed to attach for 24 hours. […] Colonies of greater than 50 cells were scored as survivors and percentage of cell survival was plotted to determine the IC50. […] The IC50 of (−)-trans-3-(5,6-dihydro-4H-pyrrolo[3,2,1-ij]quinolin-1-yl)-4(1H-indol-3-yl) pyrrolidine-2,5-dione for c-Met expressing solid tumor types is in the 0.1-0.7 μM range following exposure to (−)-trans-3-(5,6-dihydro-4H-pyrrolo[3,2,1-ij]quinolin-1-yl)-4(1H-indol-3-yl)pyrrolidine-2,5-dione for 24 hours, as determined by colony formation assay (CFA).

The next assay concerns the target c-Met (Homo sapiens, UniProt P08581). Briefly: c-Met inhibition, phospho-c-Met blot with densitometry (Example 83). The format is cell-based. Also on record: whole cell extracts were prepared; endogenous in cells; host or cells: MCF-7, MDA-MB-231, DLD1, HT29, PACA2, PANC-1, NCI-H441. Conditions: 24 hours treatment, read-out: (−)-trans IC50 c-Met Inhibition. As to the method: To determine c-met inhibition, exponentially growing MCF-7 and MDA-MB-231 human breast cancer cells, DLD1 and HT29 human colon cancer cells, PACA2 and PANC-1 human pancreatic cancer cells and NCI-H441 human non-small cell lung cancer cells (H441) were serum starved in 0.5% FBS and treated with increasing amounts of (−)-trans-3-(5,6-dihydro-4H-pyrrolo [3,2,1-ij]quinolin-1-yl)-4(1H-indol-3-yl)pyrrolidine-2,5-dione for 24 hours as indicated. Cells were then left unstimulated or stimulated with 100 ng/mL HGF for 10 minutes and whole cell extracts were prepared. Whole cell lysates (50 μg) were resolved by SDS-PAGE, transferred onto a PVDF membrane, and an enhanced chemiluminescence assay system (ECL) was used to determine the phosphorylation status of c-Met. A polyclonal antibody against phospho (Y1349) c-Met (phospho-c-Met) was obtained from Biosource International and a monoclonal antibody against β-actin was purchased from Invitrogen. Percent inhibition was determined by densitometry using the Scion Image For colony formation assays (CFA), exponentially growing cells were seeded at 2,000 cells per well in 6-well plates and allowed to attach for 24 hours. Increasing concentrations of (−)-trans-3-(5,6-dihydro-4H-pyrrolo[3,2,1-ij]quinolin-1-yl)-4(1H-indol-3-yl)pyrrolidine-2,5-dione (from 0.01 to 30 μM) were then added to the media for another 24 hours. After 24 hours exposure, the drug was removed and fresh media was added for the next 14-21 days, allowing for colony formation. Cells were fixed and stained with GEMSA (Gibco BRL). Colonies of greater than 50 cells were scored as survivors and percentage of cell survival was plotted to determine the IC50. […] The IC50 of (−)-trans-3-(5,6-dihydro-4H-pyrrolo[3,2,1-ij]quinolin-1-yl)-4(1H-indol-3-yl) pyrrolidine-2,5-dione for c-Met expressing solid tumor types is in the 0.1-0.7 μM range following exposure to (−)-trans-3-(5,6-dihydro-4H-pyrrolo[3,2,1-ij]quinolin-1-yl)-4(1H-indol-3-yl)pyrrolidine-2,5-dione for 24 hours, as determined by colony formation assay (CFA).

c-Met, sequence (P08581 25-1390): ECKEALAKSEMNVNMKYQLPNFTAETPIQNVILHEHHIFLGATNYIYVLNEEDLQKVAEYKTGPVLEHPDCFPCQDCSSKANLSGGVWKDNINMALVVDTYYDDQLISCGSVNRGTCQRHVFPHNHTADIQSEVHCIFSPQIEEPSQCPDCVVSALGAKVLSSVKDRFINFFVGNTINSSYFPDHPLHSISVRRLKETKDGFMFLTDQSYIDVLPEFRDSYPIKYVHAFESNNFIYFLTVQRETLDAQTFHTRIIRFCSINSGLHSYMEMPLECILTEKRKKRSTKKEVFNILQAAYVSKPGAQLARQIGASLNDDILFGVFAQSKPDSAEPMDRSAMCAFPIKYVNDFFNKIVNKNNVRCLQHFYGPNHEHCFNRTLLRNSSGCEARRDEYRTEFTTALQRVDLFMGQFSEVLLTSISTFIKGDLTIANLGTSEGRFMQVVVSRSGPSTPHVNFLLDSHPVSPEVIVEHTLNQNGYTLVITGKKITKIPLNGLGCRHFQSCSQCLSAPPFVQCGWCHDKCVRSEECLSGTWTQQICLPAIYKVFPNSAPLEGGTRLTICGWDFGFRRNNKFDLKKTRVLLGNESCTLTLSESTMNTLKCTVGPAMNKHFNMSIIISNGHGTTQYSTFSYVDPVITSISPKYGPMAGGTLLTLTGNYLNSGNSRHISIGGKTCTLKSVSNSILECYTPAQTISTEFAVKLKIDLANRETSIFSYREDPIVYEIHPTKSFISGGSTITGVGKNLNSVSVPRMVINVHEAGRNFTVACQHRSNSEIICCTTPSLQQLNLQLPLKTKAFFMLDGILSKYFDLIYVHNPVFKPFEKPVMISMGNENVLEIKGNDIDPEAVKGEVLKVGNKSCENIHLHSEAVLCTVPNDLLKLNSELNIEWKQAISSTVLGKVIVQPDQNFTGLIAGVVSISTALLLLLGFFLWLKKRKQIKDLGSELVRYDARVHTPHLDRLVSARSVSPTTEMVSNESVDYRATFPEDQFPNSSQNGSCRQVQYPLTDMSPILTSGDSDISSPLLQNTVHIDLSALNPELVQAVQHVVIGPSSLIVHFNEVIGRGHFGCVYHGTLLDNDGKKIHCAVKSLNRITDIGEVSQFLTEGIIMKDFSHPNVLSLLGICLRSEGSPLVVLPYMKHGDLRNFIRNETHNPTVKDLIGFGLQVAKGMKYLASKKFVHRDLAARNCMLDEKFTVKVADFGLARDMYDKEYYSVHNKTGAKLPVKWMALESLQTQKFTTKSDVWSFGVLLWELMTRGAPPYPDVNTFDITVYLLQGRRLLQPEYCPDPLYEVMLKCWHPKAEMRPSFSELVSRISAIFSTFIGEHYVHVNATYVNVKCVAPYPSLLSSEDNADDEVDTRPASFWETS

Turning to `O=C1NC(=O)[C@@H](c2cn3c4c(cccc24)CCC3)[C@@H]1c1c[nH]c2ccccc12` (racemic) [(±)-Trans-3-(5,6-dihydro-4H-pyrrolo[3,2,1-ij]quinolin-1-yl)-4(1H-indol-3-yl)pyrrolidine-2,5-dione], the IC50 is 1820 nM in the assay with HCT-116; 9610 nM with DU-145; 424 nM in the assay on K562; > 100000 nM with MCF7; 13000 nM in the assay on SK-MEL-28; 4550 nM in the assay on HT29. For the same molecule, the IC50 came to 939 nM in the assay with SKOV-3, 3340 nM with MDA-MB-231, 10700 nM in the assay with A549 and 4950 nM in the assay with PC-3.

For the molecule `O=C1NC(=O)C(c2cn3c4c(cccc24)CCC3)C1c1c[nH]c2ccccc12` (single isomer, unassigned; (-)), the IC50 with HCT-116 was 812 nM; in the assay with DU-145, 4000 nM; with K562, 294 nM; in the assay with MCF7, > 100000 nM; in the assay on SK-MEL-28, 8680 nM; in the assay on HT29, 1950 nM. Moreover, the IC50 in the assay with SKOV-3 was 444 nM; with MDA-MB-231 it was 2190 nM; with A549, 5800 nM; with PC-3 it was 1280 nM; in the assay on human tumor cell lines, 100 to 700 nM; at c-Met (DLD-1 cells) it was 3000 nM. The IC50 at c-Met (H441 cells) came to 100 nM; at c-Met (HT-29 cells) it was 300 nM; on c-Met (MCF-7 cells) it was 100 nM; at c-Met (MDA-MB-231 cells), 100 nM; at c-Met (PACA2 cells) it was 100 nM; on c-Met (PANC-1 cells), 500 nM.

What is called IC50 is the concentration at which inhibition is half-maximal.
